The source of these data is patent US6670363B1, “Azole compounds as therapeutic agents for fungal infections” (Ranbaxy Laboratories Limited, priority 2000, dated 2003).

In brackets after ≈: the same amount, converted by molar mass.

What all share (format): cell-based
In one experiment the test system is Candida. Kind of experiment: In vitro MIC, NCCLS M27A, Candida species. Details: MIC, Candida albicans 1.549 / MIC, Candida albicans Y-01-19 / MIC, C. krusei 766-1 / MIC, C. krusei Q. C / MIC, Candida tropicalis ATCC / MIC, C. glabrata 90030: unit not given beside the values; MIC, Candida albicans A 26 / MIC, C. parapsilosis Q. C.: unit not given here. The note with it: for MIC, C. glabrata 90030: C. glabrata strain 90030; for MIC, C. krusei 766-1: C. krusei strain 766-1; for MIC, C. krusei Q. C: C. krusei strain Q. C; for MIC, C. parapsilosis Q. C.: C. parapsilosis strain Q. C.; for MIC, Candida albicans 1.549: Candida albicans strain 1.549; for MIC, Candida albicans A 26: Candida albicans strain A 26; for MIC, Candida albicans Y-01-19: Candida albicans strain Y-01-19.

The next experiment concerns A. fumigatus s 1008. Kind of experiment: In vitro MIC, NCCLS M38P broth method (RPMI 1640/MOPS pH7), Aspergillus fumigatus. The settings on record: A. fumigatus strain 1008.
The next experiment relates to Histoplasma capsulatum.
Another experiment deals with Cryptococcus neoformans. The experiment can be described thus: In vitro MIC, NCCLS M27A, Cryptococcus neoformans. Details: MIC, C. neoformans I: unit not given beside the values; MIC, C. neoformans M 106: unit not given here. The settings on record: for MIC, C. neoformans I: C. neoformans strain I; for MIC, C. neoformans M 106: C. neoformans strain M 106.

For the compound `COc1ccccc1N1CCN(c2ccc(-n3c(C)nn(CC(O)(Cn4cncn4)c4ccc(F)cc4F)c3=O)cc2)CC1` (stereo not drawn) [Compound 35, 2-[2-(2,4-Difluorophenyl)-2-hydroxy-3-(1H-1,2,4-triazol-1-yl)propyl]-4-{4-[4-(2-methoxyphenyl)-1-piperazinyl]phenyl}-3-(2H,4H)-5-methyl-1,2,4-triazolone], in the experiment with Candida, the “MIC, C. glabrata 90030” value came out at 12.50; the “MIC, C. krusei 766-1” value came to 12.50; the “MIC, C. krusei Q. C” value was found to be 3.12; the “MIC, C. parapsilosis Q. C.” value turned out to be 0.20. Moreover, in the experiment with Candida, the “MIC, Candida albicans 1.549” value worked out at 1.56; the “MIC, Candida albicans A 26” value is less than 0.02; the “MIC, Candida albicans Y-01-19” value is reported as 3.12; the “MIC, Candida tropicalis ATCC” value was less than 0.02. The “MIC, A. fumigatus 1008” value in the experiment with A. fumigatus s 1008 is more than 12.5. Besides, the MIC, H. capsulatum against Histoplasma capsulatum was found to be 0.2 µg/mL (≈ 0.332 µM). Also, in the experiment with Cryptococcus neoformans, the “MIC, C. neoformans I” value was 0.80 and the “MIC, C. neoformans M 106” value was found to be 3.12.

`Cc1nn(CC(O)(Cn2cncn2)c2ccc(F)cc2F)c(=O)n1-c1ccc(N2CCN(c3ccc(F)cc3)CC2)cc1` (stereo not drawn) [Compound 36, 2-[2-(2,4-Difluorophenyl)-2-hydroxy-3-(1H-1,2,4-triazol-1-yl)propyl]-4-{4-[4-(4-fluorophenyl)-1-piperazinyl]phenyl}-3-(2H,4H)-5-methyl-1,2,4-triazolone]: in the experiment with Candida, the “MIC, C. glabrata 90030” value turned out to be 3.12; the “MIC, C. krusei 766-1” value was determined as 3.12; the “MIC, C. krusei Q. C” value is reported as 1.56; the “MIC, C. parapsilosis Q. C.” value was less than 0.02. For the same compound, in the experiment with Candida, the “MIC, Candida albicans 1.549” value is listed as 0.20; the “MIC, Candida albicans A 26” value is less than 0.02; the “MIC, Candida albicans Y-01-19” value came out at 0.40; the “MIC, Candida tropicalis ATCC” value is less than 0.02. The “MIC, A. fumigatus 1008” value in the experiment on A. fumigatus s 1008 was more than 12.5. For the same compound, the MIC, H. capsulatum in the experiment with Histoplasma capsulatum is less than 0.02 µg/mL. In the experiment with Cryptococcus neoformans, the “MIC, C. neoformans I” value is listed as 0.20 and the “MIC, C. neoformans M 106” value is recorded as 0.40.

For the compound `O=c1n(-c2ccc(N3CCN(c4ccccc4)CC3)cc2)cnn1CC(O)(Cn1cncn1)c1ccc(F)cc1F` (stereo not drawn) [Compound 45, 2-[2-(2,4-Difluorophenyl)-2-hydroxy-3-(1H-1,2,4-triazol-1-yl)propyl]-4-{4-[1-phenyl-1-piperazinyl]phenyl}-3-(2H,4H)-1,2,4-triazolone], in the experiment with Candida, the “MIC, C. glabrata 90030” value came to 0.10; the “MIC, C. krusei 766-1” value is reported as 0.80; the “MIC, C. krusei Q. C” value amounted to 0.10; the “MIC, C. parapsilosis Q. C.” value was less than 0.02. Besides, in the experiment on Candida, the “MIC, Candida albicans 1.549” value was 0.05; the “MIC, Candida albicans A 26” value is reported as less than 0.02; the “MIC, Candida albicans Y-01-19” value is 0.05; the “MIC, Candida tropicalis ATCC” value is 3.12. Moreover, in the experiment on A. fumigatus s 1008, the “MIC, A. fumigatus 1008” value is reported as more than 12.5. Moreover, the MIC, H. capsulatum in the experiment on Histoplasma capsulatum was 3.12 µg/mL (≈ 5.59 µM). In addition, in the experiment with Cryptococcus neoformans, the “MIC, C. neoformans I” value is listed as less than 0.02 and the “MIC, C. neoformans M 106” value worked out at 0.10.

On to `Cc1nn(CC(O)(Cn2cncn2)c2ccc(F)cc2F)c(=O)n1-c1ccc(N2CCN(c3ccc(Cl)cc3)CC2)cc1` (stereo not drawn) [Compound 46, 2-[2-(2,4-Difluorophenyl)-2-hydroxy-3-(1H-1,2,4-triazol-1-yl)propyl]-4-{4-[4-(4-chlorophenyl)-1-piperazinyl]phenyl}-3-(2H,4H)-5-methyl-1,2,4-triazolone], for which, in the experiment on Candida, the “MIC, C. glabrata 90030” value was found to be 6.25; the “MIC, C. krusei 766-1” value was determined as 3.12; the “MIC, C. krusei Q. C” value was 0.80; the “MIC, C. parapsilosis Q. C.” value is recorded as less than 0.02. In the experiment with Candida, the “MIC, Candida albicans 1.549” value is 0.40; the “MIC, Candida albicans A 26” value was less than 0.02; the “MIC, Candida albicans Y-01-19” value is 0.40; the “MIC, Candida tropicalis ATCC” value worked out at 0.05. Further, the “MIC, A. fumigatus 1008” value against A. fumigatus s 1008 is recorded as more than 12.5. In the experiment on Histoplasma capsulatum, this compound displayed an MIC, H. capsulatum of 0.1 µg/mL (≈ 0.165 µM). In the experiment on Cryptococcus neoformans, the “MIC, C. neoformans I” value was determined as 0.05 and the “MIC, C. neoformans M 106” value is 0.40.
